Assays:
[1] = compound: CCCCOc1c(C(=O)c2c(F)cc(C)cc2F)c[nH]c2nncc1-2
[2] = compound: CC(C)Nc1cc(-c2c[nH]c(C(=O)N[C@H](CO)c3cccc(Cl)c3)c2)c(Cl)cn1 [BVD523]
[3] = compound: CCc1cnn2c(NCc3ccc[n+]([O-])c3)cc(N3CCCC[C@H]3CCO)nc12
[4] = compound: CN(C)C/C=C/C(=O)Nc1ccc(C(=O)N2CCC[C@@H](Nc3ncc(Cl)c(-c4c[nH]c5ccccc45)n3)C2)cc1 [THZ531]
[5] = compound: COc1cccc2c1C(=O)c1c(O)c3c(c(O)c1C2=O)C[C@@](O)(C(=O)CO)C[C@@H]3O[C@H]1C[C@H](N)[C@H](O)[C@H](C)O1 [Doxorubicin]
[6] = compound: COc1cc2c(Oc3ccc4[nH]c(C)cc4c3F)ncnc2cc1OCCCN1CCCC1 [Cediranib/AZD2171]
[7] = compound: CC(=O)c1c(C)c2cnc(Nc3ccc(N4CCN(CCOCCOCCOCCNC(=O)COc5cccc6c5C(=O)N(C5CCC(=O)NC5=O)C6=O)CC4)cn3)nc2n(C2CCCC2)c1=O [BSJ-03-123]
[8] = compound: CC1=CN2C(=O)C=C(N=C2C(=C1)C(C)NC3=CC=CC=C3)N4CCOCC4 [TGX221]
[9] = compound: CN(C)C(=O)c1cc2cnc(Nc3ccc(N4CCNCC4)cn3)nc2n1C1CCCC1 [LEE011/Ribociclib]
[10] = compound: CC(=O)c1c(C)c2cnc(Nc3ccc(N4CCNCC4)cn3)nc2n(C2CCCC2)c1=O
[11] = compound: CN(C)C/C=C/C(=O)Nc1ccc(C(=O)Nc2cccc(Nc3ncc(Cl)c(-c4c[nH]c5ccccc45)n3)c2)cc1 [THZ1]
[12] = compound: CS(=O)(=O)N1CCN(Cc2cc3nc(-c4cccc5[nH]ncc45)nc(N4CCOCC4)c3s2)CC1 [Pictilisib/GDC0941]
[13] = compound: Cc1nn(C)c(COc2ccc(N3CCN(S(=O)(=O)N(C)C)CC3)cc2)c1-c1cccc2c(CCCOc3cccc4ccccc34)c(C(=O)O)n(CCN3CCOCC3)c12
[14] = compound: C=CCn1c(=O)c2cnc(Nc3ccc(N4CCN(C)CC4)cc3)nc2n1-c1cccc(C(C)(C)O)n1 [AZD1775]
[15] = compound: C1=CC(=CC(=C1)N2C(=O)C=CC3=CN=C4C=CC(=CC4=C32)C5=CN=C(C=C5)N)C(F)(F)F [Torin2]
[16] = compound: CCOc1cc2ncc(C#N)c(Nc3ccc(OCc4ccccn4)c(Cl)c3)c2cc1NC(=O)/C=C/CN(C)C [Neratinib/HKI272]
[17] = compound: Cc1cc(Nc2ncc(Cl)c(Nc3ccccc3S(=O)(=O)C(C)C)n2)c(OC(C)C)cc1C1CCNCC1 [Ceritinib/LDK378]
[18] = compound: CC(C)n1nc(-c2ccc3oc(N)nc3c2)c2c(N)ncnc21 [INK128/MLN0128]
[19] = compound: CN1CCN(C(=O)c2ccc3cc(CCNc4ncnc5ccc(C#N)cc45)ccc3c2)CC1 [senexin b]
[20] = compound: Cc1nc(NC(=O)N2CCC[C@H]2C(N)=O)sc1-c1ccnc(C(C)(C)C(F)(F)F)c1 [Alpelisib/BYL719]
[21] = compound: CNCc1ccc(-c2[nH]c3cc(F)cc4c3c2CCNC4=O)cc1 [Rucaparib]
[22] = compound: CNc1nc(-c2ccc3c(N)n[nH]c3c2)cc(N2C[C@@H](C(=O)NC3CCCCC3)CC[C@H]2C)n1
[23] = compound: COc1cc2nccc(Oc3ccc(NC(=O)C4(C(=O)Nc5ccc(F)cc5)CC4)cc3)c2cc1OC [Cabozantinib]
[24] = compound: O=C(c1cc(Cc2n[nH]c(=O)c3ccccc23)ccc1F)N1CCN(C(=O)C2CC2)CC1 [Olaparib/AZD2281]
[25] = compound: Cc1nc(Nc2ncc(C(=O)Nc3c(C)cccc3Cl)s2)cc(N2CCN(CCO)CC2)n1 [Dasatinib]
[26] = compound: CC[C@@H]1C(=O)N(C)c2cnc(Nc3ccc(C(=O)N[C@H]4CC[C@H](N5CCN(CC6CC6)CC5)CC4)cc3OC)nc2N1C(C)C [Volasertib/BI6727]
[27] = compound: C1=CC2=C(C=CC(=C2)C=C3C(=O)NC(=NCC4=CC=CS4)S3)N=C1 [R0-3306]
[28] = compound: CC(=O)O[C@H]1C(=O)[C@@]2(C)[C@H]([C@H](OC(=O)c3ccccc3)[C@]3(O)C[C@H](OC(=O)[C@H](O)[C@@H](NC(=O)c4ccccc4)c4ccccc4)C(C)=C1C3(C)C)[C@]1(OC(C)=O)CO[C@@H]1C[C@@H]2O [Paclitaxel]
[29] = compound: CN(C)C/C=C/C(=O)NC1=CC=C(C=C1)C(=O)NC2=CC=CC(=C2)NC3=NC=NC(=C3)C4=CNC5=CC=CC=C54 [THZ-P1-2]
[30] = compound: NC1(C(=O)N[C@@H](CCO)c2ccc(Cl)cc2)CCN(c2nc[nH]c3nccc2-3)CC1 [AZD5363]
[31] = compound: Nc1cc(C(F)(F)F)c(-c2cc(N3CCOCC3)nc(N3CCOCC3)n2)cn1 [Buparlisib/NVP-BKM120]
[32] = compound: CCNC(=O)c1noc(-c2cc(C(C)C)c(O)cc2O)c1-c1ccc(CN2CCOCC2)cc1 [Luminespib/NVP-AUY922]
[33] = compound: CC1(CCN(CC1)C2=CN=C(C(=N2)N)C3=C(C(=CC=C3)Cl)Cl)N [SHP099]
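Further: breast cancer and non-malignant breast epithelial cell lines, Deep Dye Drop or Dye Drop imaging, nine half-log doses, GR normalized to time-zero plates and DMSO-only controls.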

| Cell Line | GR50, 72 h [1] [µM] | GR50, 72 h [2] [µM] | GR50, 72 h [3] [µM] | GR50, 72 h [4] [µM] | GR50, 72 h [5] [µM] | GR50, 72 h [6] [µM] | GR50, 72 h [7] [µM] | GR50, 72 h [8] [µM] | GR50, 72 h [9] [µM] | GR50, 72 h [10] [µM] | GR50, 72 h [11] [µM] | GR50, 72 h [12] [µM] | GR50, 72 h [13] [µM] | GR50, 72 h [14] [µM] | GR50, 72 h [15] [µM] | GR50, 72 h [16] [µM] | GR50, 72 h [17] [µM] | GR50, 72 h [18] [µM] | GR50, 72 h [19] [µM] | GR50, 72 h [20] [µM] | GR50, 72 h [21] [µM] | GR50, 72 h [22] [µM] | GR50, 72 h [23] [µM] | GR50, 72 h [24] [µM] | GR50, 72 h [25] [µM] | GR50, 72 h [26] [µM] | GR50, 72 h [27] [µM] | GR50, 72 h [28] [µM] | GR50, 72 h [29] [µM] | GR50, 72 h [30] [µM] | GR50, 72 h [31] [µM] | GR50, 72 h [32] [µM] | GR50, 72 h [33] [µM] |
| --- | --- | --- | --- | --- | --- | --- | --- | --- | --- | --- | --- | --- | --- | --- | --- | --- | --- | --- | --- | --- | --- | --- | --- | --- | --- | --- | --- | --- | --- | --- | --- | --- | --- |
| HCC1143 | 0.00177 | 1.74 | 0.0151 | 0.131 | 0.00927 | 3.73 | 1.87 | > 10 | 3.65 | 0.277 | 0.0265 | 0.978 | > 10 | 0.703 | 0.0447 | 0.672 | 1.45 | 0.0405 | > 10 | 9.88 | > 10 | > 10 | > 10 | 8.83 | 0.139 | 0.00459 | 1.66 | 0.00207 | 5.01 | > 10 | 0.725 | 0.00391 | > 10 |
| BT549 | 0.00106 | > 10 | 0.0124 | 0.302 | 0.00648 | 3.64 | 6.36 | > 10 | > 10 | > 3.16 | 0.0528 | 2.78 | > 10 | 0.318 | 0.00951 | 1.99 | 2.96 | 0.0166 | > 10 | > 10 | > 10 | > 10 | > 10 | > 10 | 0.592 | 0.00884 | 5.42 | 0.00272 | 7.26 | > 10 | 1.42 | 0.00539 | > 10 |
| HCC1937 | < 0.001 | > 10 | 0.0218 | 0.26 | 0.0128 | 8.4 | 9.94 | > 10 | > 10 | > 3.16 | 0.0648 | 2.42 | > 10 | 0.00892 | 0.0934 | 1.46 | 3.53 | 0.0515 | 4.95 | > 10 | > 10 | > 10 | > 10 | > 10 | 0.113 | 0.0119 | 5.17 | 0.00245 | 4.05 | > 10 | 1.45 | 0.0114 | > 10 |
| SUM229PE | 0.0124 | 1.6 | 0.0141 | 0.314 | 0.031 | 8.64 | 1.64 | > 10 | > 10 | 0.956 | 0.0185 | 3.92 | > 10 | 0.00928 | 0.0523 | 0.419 | 1.68 | 0.047 | > 10 | > 10 | > 10 | > 10 | 6.79 | > 10 | 0.094 | 0.0135 | 6.23 | 0.00176 | 5.54 | > 10 | 1.27 | 0.00595 | > 10 |
| HCC70 | 0.00336 | 1.11 | 0.0129 | 0.0623 | 0.0108 | 4.54 | 4.15 | 0.0912 | > 10 | > 3.16 | 0.0148 | 0.161 | > 10 | < 0.001 | 0.00585 | 0.16 | 3.19 | 0.0048 | > 10 | 4.51 | > 10 | 1.27 | 1.54 | > 10 | 0.00964 | 0.0066 | 4.53 | 0.00134 | 3.18 | 0.0256 | 0.437 | 0.00765 | > 10 |
| CAL51 | 3.95 | > 10 | 0.0147 | > 1 | 0.00858 | 3.05 | 4.36 | > 10 | 3.72 | 0.373 | 0.385 | 2.89 | > 10 | 0.274 | 0.0179 | 2.25 | 0.475 | 0.015 | > 10 | 6.1 | > 10 | > 10 | 7.77 | 7.19 | 0.0581 | 0.00591 | 8.06 | 0.00417 | > 10 | > 10 | 0.989 | 0.00639 | > 10 |

Reference: the supplement of paper PMC9663587
